Results: PMC9220178, “Preclinical Characterization of Antioxidant Quinolyl Nitrone QN23 as a New Candidate for the Treatment of Ischemic Stroke” (Antioxidants, 2022)

How the values were obtained:
Type in all cases: in vivo, rat
[1] = system: adult male Wistar rats, four-vessel occlusion (4VO) transient forebrain ischemia; test: Neuronal death by Fluoro-Jade B staining after transient global cerebral ischemia (4VO); conditions: 40 mg/kg i.v. at 0, 1, 3 or 6 h of reperfusion; R5d
Experimental: (§1) Transient forebrain ischemia was induced in adult male Wistar rats (10–12 weeks, Charles River, L’Arbresle, France) by the standard four-vessel occlusion (4VO) model previously described. Briefly, animals were anesthetized by intraperitoneal injection of a combination of ketamine, diazepam, and atropine (62.5, 5.0, and 0.25 mg/kg, respectively); positioned in a stereotactic device; and both vertebral arteries were cauterized. The next day, anesthesia was induced with 4% isoflurane and maintained at 2–2.5% isoflurane for carotid artery dissection. After anesthesia withdrawal, the carotid arteries were occluded with an atraumatic vascular clamp to induce brain ischemia. During the entire surgical procedure, temperature was monitored at 2 min intervals and kept at 37 °C. After 15 min of ischemia, the carotid arteries were unclamped for brain reperfusion. The animals were studied after 5 days of reperfusion (R5d), or after 11 weeks of reperfusion (long-term studies), and then they were euthanized under deep anesthesia. Animals from the sham control group were handled in the same way, but without occlusion of the carotid arteries. Ischemic animals were treated with vehicle solution (ethanol/polyethylene glycol 400/saline, 1:300:200 v/v), or with nitrones QN23 or NXY-059 in vehicle solution, as a single injection through the tail vein at the onset of reperfusion. For the therapeutic window experiments, the animals were also treated at reperfusion times 1, 3, and 6 h after ischemia. The treatments were prepared by an independent researcher and administered with concealed allocation. Treatments were administered in a randomized order obtained by a computer-based randomization program. To determine the sample size, a power analysis (http://www.biomath.info/power/ttest.htm, accessed on 12 March 2020) with significance level set at 0.05 and statistical power set at 0.8 (80%) rendered a sample size of <6 subjects per group. A total of 120 ischemic animals (30 animals treated with vehicle, 60 treated with QN23, and 30 treated with NXY-059) and 9 sham control animals were included in these studies. Additionally, 13 animals were excluded from the study: 6 animals were not ischemic and 7 animals died within the 24 h after the surgical procedure (5 vehicles, 1 QN23-treated at 1.0 mg/kg, and 1 QN23-treated at 2.0 mg/kg). The Animal Care Ethics Committee of the Hospital Universitario Ramón y Cajal (Madrid, Spain) authorized all the procedures involving the animal experimentation reported here (authorization number 04/2020). These experiments were performed according to ARRIVE guidelines and the legislation on the protection of animals used for scientific purposes in Spain (RD 53/2013) and the EU (Directive 2010/63/EU). The study was designed and conducted according to the STAIR guidelines regarding physiological monitoring, sample randomization, predefined exclusion criteria, allocation concealment, blinded assessment of outcomes, dose–response definition, and a conflict-of-interest statement.
(§2) After 5 days of reperfusion (R5d), or at 11 weeks of reperfusion in long-term studies, animals were euthanized by transcardiac perfusion via the left ventricle under deep anesthesia. First, blood was washed out with 200 mL of ice-cold saline medium, followed by fixation with 4% (w/v) paraformaldehyde solution in PBS for brain preservation. Then, the brains were carefully removed from the cranial cavity and placed in 4% (w/v) paraformaldehyde solution in PBS overnight at 4 °C. The next day, the brains were sequentially placed in 10%, 20%, and 30% (w/v) sucrose in PBS until sunken, and finally embedded in Tissue-Tek O.C.T. (Sakura Finetek, Torrance, CA, USA) before freezing at −80 °C. Brain coronal sections containing the hippocampus region were obtained by cryostat sectioning at the level of interaural line +5.7 ± 0.2 mm on Real Capillary Gap microscope slides (Agilent Dako, Santa Clara, CA, USA). […]

[2] = system: adult male Wistar rats, four-vessel occlusion (4VO) transient forebrain ischemia; test: Neuronal apoptosis by TUNEL assay after transient global cerebral ischemia (4VO); conditions: 40 mg/kg i.v. at 0, 1, 3 or 6 h of reperfusion; R5d
Experimental: as §1, §2

[3] = system: adult male Wistar rats, four-vessel occlusion (4VO) transient forebrain ischemia; test: Neurological deficit score (NDS) after global cerebral ischemia (4VO); conditions: 40 mg/kg i.v.; R5d; times tested 0, 1, 3, 6 h
Experimental: Transient forebrain ischemia was induced in adult male Wistar rats (10–12 weeks, Charles River, L’Arbresle, France) by the standard four-vessel occlusion (4VO) model previously described. Briefly, animals were anesthetized by intraperitoneal injection of a combination of ketamine, diazepam, and atropine (62.5, 5.0, and 0.25 mg/kg, respectively); positioned in a stereotactic device; and both vertebral arteries were cauterized. The next day, anesthesia was induced with 4% isoflurane and maintained at 2–2.5% isoflurane for carotid artery dissection. After anesthesia withdrawal, the carotid arteries were occluded with an atraumatic vascular clamp to induce brain ischemia. During the entire surgical procedure, temperature was monitored at 2 min intervals and kept at 37 °C. After 15 min of ischemia, the carotid arteries were unclamped for brain reperfusion. The animals were studied after 5 days of reperfusion (R5d), or after 11 weeks of reperfusion (long-term studies), and then they were euthanized under deep anesthesia. Animals from the sham control group were handled in the same way, but without occlusion of the carotid arteries. Ischemic animals were treated with vehicle solution (ethanol/polyethylene glycol 400/saline, 1:300:200 v/v), or with nitrones QN23 or NXY-059 in vehicle solution, as a single injection through the tail vein at the onset of reperfusion. For the therapeutic window experiments, the animals were also treated at reperfusion times 1, 3, and 6 h after ischemia. The treatments were prepared by an independent researcher and administered with concealed allocation. Treatments were administered in a randomized order obtained by a computer-based randomization program. […]
After 5 days of post-ischemic reperfusion (R5d), neurological deficits were evaluated in the animals by a researcher blind to the treatment allocation. General status and mobility impairments were quantified according to a scale previously validated in an entire cohort of R5d animals (n = 20). […]

[4] = system: adult male Wistar rats, four-vessel occlusion (4VO) transient forebrain ischemia; test: Long-term behavioral tests in the Y maze; conditions: 40 mg/kg i.v. at reperfusion onset, 11 weeks after ischemia
Experimental: Long-term assessment of neurological damage after the ischemic episode was performed by the evaluation of the spontaneous exploratory activity (spatial recognition) and spatial memory skills in the Y maze.
For the assessment of the exploratory activity and spatial recognition, control animals and ischemic animals treated with vehicle, QN23, or NXY-059 were placed in the center of the maze and allowed free exploration for 8 min. An independent researcher blind to the treatment allocation registered the total number of arms that the animal entered indistinctly (arm entries), and the times that the animal explored the three different arms of the maze consecutively (alternations or triads).
For the assessment of spatial memory, experiments consisted of two trials. For the first trial (training), control and ischemic animals treated with vehicle or QN23 were placed into one of the arms (start arm) and allowed to explore the Y maze for 10 min with one of the arms closed. One hour after the training trial, the animals were returned to the Y maze and the second trial was conducted. The animals were placed in the same start arm as in the training trial, but now with the remaining two arms of the maze available for exploration for 3 min. A researcher blind to the treatment allocation registered the first choice of arm for entry (novel or old).

Compound: CC(C)(C)[N+]([O-])=Cc1ccc(S(=O)(=O)[O-])cc1S(=O)(=O)[O-].[Na+].[Na+] [NXY-059, reference compound]
- Neuronal death compared with vehicle [1]: did not reduce neuronal death
- Apoptosis reduction compared with vehicle [2]: did not produce a significant effect
- Therapeutic window: administration time after reperfusion onset with significantly reduced NDS [3]: 0 h
- Y maze arm entries (exploratory activity) [4]: fewer arm maze entries
- Y maze alternations (triads completed), spatial recognition ([4]; vehicle 5.0, control 15.75): 5.5
- Percentage of animals exploring the novel arm as a first choice (spatial memory) ([4]; vehicle 17%, control 75%): 50%
